# In PMC13184981, “Discovery and Development of a Potent LIMK2 Isoform-Specific Degrader” (ACS Chemical Biology, 2026):
# Key:
# HEK293T cells = assay: CellTiter-Glo 2.0 cell viability assay; type: cell-based, human; details: 24-h treatment, 25 nM to 20 µM
# Description: The effects of the PROTAC on cell viability were determined using the CellTiter-Glo 2.0 Cell Viability Assay (Promega, G9241) following the manufacturer’s protocol. […] 40 μL of assay reagent was added and incubated for 10 min at RT. Filtered luminescence was measured using a PHERAstar plate reader (BMG Labtech), and data were analyzed using GraphPad Prism 9.
# [1] = molecular target: T1, FLAG-tagged CRBN with MOLT-4 cell lysate (Homo sapiens, UniProt P53671+Q96SW2); assay: PROXICapture pull-down proteomics; type: binding; details: 5 μM PROTAC
# T1 construct: LIMK2: endogenous, MOLT-4 cell lysate
# Description: Purified FLAG-CRBN was conjugated to FLAG beads (Chromotek, cat. no. ffak) in coimmunoprecipitation buffer (50 mM Tris pH-7.5, 120 mM NaCl, 1% NP40, 0.5 mM EDTA) for 1 h at 4 °C on a rotating shaker, before addition of DMSO or 5 μM THNAN69 for 30 min at 4 °C. Subsequently, ∼ 1 mg of freshly prepared protein lysate from Molt4 cells was added to the prepared beads in IP lysate buffer (50 mM Tris pH-7.5, 120 mM NaCl, 1% NP40, 0.5 mM EDTA, protease inhibitors, phosphatase inhibitors and NEM) for 1 h at 4 °C while rotating. The beads were washed three times with IP buffer and afterward used either for Western blotting or trypsin digestion followed by LC-MS/MS analysis.
# Protein-bound flag-CRBN beads were incubated with 20 μL SDC buffer (3% sodium deoxycholate in 50 mM Tris-HCl, pH 8.5) and heated for 5 min at 65 °C, and the supernatant was collected. This step was repeated one more time to get an elute of 40 μL. Further, reduction and alkylation were performed using 5 μL of 5 mM TCEP, 20 mM CAA in 50 mM Tris-HCl, pH 8.5, at 95 °C for 10 min. 500 ng of trypsin in 45 μL 50 mM Tris-HCl (pH 8.5) was added to each sample and kept for digestion at 37 °C overnight. […]
# MS raw data were analyzed using FragPipe v21.1, with MSFragger v.4.0 and Philosopher v.5.1.0. […] Label-free quantification was performed using IonQuant v.1.10.27. […]
# EGFP–LIMK2 = molecular target: T2, EGFP–LIMK2 (Homo sapiens, UniProt P53671); assay: EGFP-LIMK2 depletion live-cell assay (Incucyte); type: cell-based
# T2 construct: P2A remnant (from EGFP-LIMK2-P2A-mCherry; that residues stay on LIMK2 after self-cleavage is own knowledge) (C); expressed in transfected cells; host or cells: HuCCT1 (lentiviral transduction, doxycycline-inducible pCW57 vector)
# T2 sequence (P53671 whole entry): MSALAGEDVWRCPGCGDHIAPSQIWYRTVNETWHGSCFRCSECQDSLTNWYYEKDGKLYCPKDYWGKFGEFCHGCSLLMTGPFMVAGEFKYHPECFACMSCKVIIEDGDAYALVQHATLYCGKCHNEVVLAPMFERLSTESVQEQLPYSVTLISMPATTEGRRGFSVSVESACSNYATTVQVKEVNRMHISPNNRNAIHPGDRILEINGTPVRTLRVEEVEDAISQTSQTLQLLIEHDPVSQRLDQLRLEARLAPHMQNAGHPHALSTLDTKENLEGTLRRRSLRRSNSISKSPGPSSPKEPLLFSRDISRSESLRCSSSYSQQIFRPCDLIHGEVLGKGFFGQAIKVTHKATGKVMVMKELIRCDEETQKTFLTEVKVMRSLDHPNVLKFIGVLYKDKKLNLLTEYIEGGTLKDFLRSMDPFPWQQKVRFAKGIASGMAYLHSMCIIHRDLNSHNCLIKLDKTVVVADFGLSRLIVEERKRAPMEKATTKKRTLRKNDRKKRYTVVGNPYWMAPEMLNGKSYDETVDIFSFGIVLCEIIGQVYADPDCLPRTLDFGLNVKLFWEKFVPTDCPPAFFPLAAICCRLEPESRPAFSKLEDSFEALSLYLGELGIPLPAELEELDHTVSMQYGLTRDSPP
# T1 sequence (Q96SW2 whole entry): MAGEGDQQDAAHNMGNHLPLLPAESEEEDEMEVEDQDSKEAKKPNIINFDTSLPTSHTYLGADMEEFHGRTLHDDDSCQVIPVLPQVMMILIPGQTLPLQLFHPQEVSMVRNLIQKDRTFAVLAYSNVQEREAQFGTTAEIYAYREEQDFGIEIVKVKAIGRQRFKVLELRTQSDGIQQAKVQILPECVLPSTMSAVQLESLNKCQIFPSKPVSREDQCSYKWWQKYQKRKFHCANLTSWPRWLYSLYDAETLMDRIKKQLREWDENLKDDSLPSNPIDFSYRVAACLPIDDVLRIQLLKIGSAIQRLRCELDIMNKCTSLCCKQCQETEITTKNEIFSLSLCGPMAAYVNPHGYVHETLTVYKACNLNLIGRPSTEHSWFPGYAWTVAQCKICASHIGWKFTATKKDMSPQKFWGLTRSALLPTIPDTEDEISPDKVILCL
# T1 sequence (P53671 whole entry): as the sequence (P53671 whole entry) above
compound,measurement,setting,value
Cc1c(OCc2cn(CCCCC(=O)Nc3ncc(-c4cc(C(F)F)nn4-c4c(Cl)cccc4Cl)s3)nn2)cccc1N1CCC(=O)NC1=O [22b],cytotoxic effects,HEK293T cells,no cytotoxic effects
same,proteins enriched by CRBN:PROTAC pull-down,[1],selectively recruited and enriched LIMK2 but not LIMK1
same,Dmax,EGFP–LIMK2; 0.01 nM PROTAC,4.5%
same,Dmax,EGFP–LIMK2; 10000 nM PROTAC,96.1%
